Test results: patent US10543189B2, “2-acetylnaphtho[2,3-b]furan -4,9-dione for use on treating cancer” (Boston Biomedical, Inc., priority 2013, dated 2020)

Experiment: Phase 1 extension study of higher strength capsule (DP2A): adverse events
Format: in vivo
Conditions: AE possibly related to BBI608
Source text: However, with the higher strength capsules, we observed worsening gastrointestinal adverse effects including nausea, vomiting, and diarrhea in patients.
Additional studies were run using an oral formulation of the Compound of the Invention, specifically a higher strength capsule formulation (DP2A). As described herein, the Compound of the Invention blocks cancer stem cell (CSC) self-renewal and induces cell death in CSC as well as non-stem cancer cells by inhibiting Stat3, β-catenin, and Nanog pathways, and has shown potent anti-tumor and anti-metastatic activities pre-clinically. […] The studies described herein were designed as a phase 1 extension study to evaluate a formulation designed for pivotal trials to determine pharmacokinetics (PK) in patients with advanced cancer.
On Day 1, patients received a single 500 mg dose of an oral administration formulation of the Compound of the Invention (DP1). On Day 4 and Day 8, a higher strength capsule designed for pivotal trials (DP2A) was given with fasting then fed conditions. DP2A was then administered daily until disease progression or unacceptable toxicity. Endpoints were safety, PK and preliminary anticancer activity.

## CC(=O)c1cc2c(o1)C(=O)c1ccccc1C2=O [Compound 1, 2-acetylnaphtho[2,3-b]furan-4,9-dione]
Q 4 h dosing (N = 17)
  Xerostomia, Grade 3, %: 0.0%
  hypophosphatemia, Grade 1 or 2, # Subjects: 1
  hypophosphatemia, Grade 1 or 2, %: 5.9%
  hypophosphatemia, Grade 3, # Subjects: 1
  hypophosphatemia, Grade 3, %: 5.9%
Q 12 h dosing (N = 11)
  Abdominal cramps/pain, Grade 1 or 2, # Subjects: 5
  Abdominal cramps/pain, Grade 1 or 2, %: 45.5%
  Abdominal cramps/pain, Grade 3, # Subjects: 0
  Abdominal cramps/pain, Grade 3, %: 0.0%
  Anorexia, Grade 1 or 2, # Subjects: 1
  Anorexia, Grade 1 or 2, %: 9.1%
  Anorexia, Grade 3, # Subjects: 0
  Anorexia, Grade 3, %: 0.0%
  Bloated abdomen, Grade 1 or 2, # Subjects: 0
  Bloated abdomen, Grade 1 or 2, %: 0.0%
  Bloated abdomen, Grade 3, # Subjects: 0
  Bloated abdomen, Grade 3, %: 0.0%
  Dehydration, Grade 1 or 2, # Subjects: 0
  Dehydration, Grade 1 or 2, %: 0.0%
  Dehydration, Grade 3, # Subjects: 0
  Dehydration, Grade 3, %: 0.0%
  Depression, Grade 1 or 2, # Subjects: 1
  Depression, Grade 1 or 2, %: 9.1%
  Depression, Grade 3, # Subjects: 0
  Depression, Grade 3, %: 0.0%
  Diarrhea, Grade 1 or 2, # Subjects: 7
  Diarrhea, Grade 1 or 2, %: 63.6%
  Diarrhea, Grade 3, # Subjects: 0
  Diarrhea, Grade 3, %: 0.0%
  Dysgusia, Grade 1 or 2, # Subjects: 0
  Dysgusia, Grade 1 or 2, %: 0.0%
  Dysgusia, Grade 3, # Subjects: 0
  Dysgusia, Grade 3, %: 0.0%
  Fatigue/weakness, Grade 1 or 2, # Subjects: 4
  Fatigue/weakness, Grade 1 or 2, %: 36.4%
  Fatigue/weakness, Grade 3, # Subjects: 1
  Fatigue/weakness, Grade 3, %: 9.1%
  Flatulence, Grade 1 or 2, # Subjects: 2
  Flatulence, Grade 1 or 2, %: 18.2%
  Flatulence, Grade 3, # Subjects: 0
  Flatulence, Grade 3, %: 0.0%
  Nausea, Grade 1 or 2, # Subjects: 2
  Nausea, Grade 1 or 2, %: 18.2%
  Nausea, Grade 3, # Subjects: 0
  Nausea, Grade 3, %: 0.0%
  Rectal/Anal Burning, Grade 1 or 2, # Subjects: 1
  Rectal/Anal Burning, Grade 1 or 2, %: 9.1%
  Rectal/Anal Burning, Grade 3, # Subjects: 0
  Rectal/Anal Burning, Grade 3, %: 0.0%
  Reflux (also heartburn), Grade 1 or 2, # Subjects: 0
  Reflux (also heartburn), Grade 1 or 2, %: 0.0%
  Reflux (also heartburn), Grade 3, # Subjects: 0
  Reflux (also heartburn), Grade 3, %: 0.0%
  Urine Color Change, Grade 1 or 2, # Subjects: 0
  Urine Color Change, Grade 1 or 2, %: 0.0%
  Urine Color Change, Grade 3, # Subjects: 0
  Urine Color Change, Grade 3, %: 0.0%
  Vomiting, Grade 1 or 2, # Subjects: 1
  Vomiting, Grade 1 or 2, %: 9.1%
  Vomiting, Grade 3, # Subjects: 0
  Vomiting, Grade 3, %: 0.0%
  Weight loss, Grade 1 or 2, # Subjects: 0
  Weight loss, Grade 1 or 2, %: 0.0%
  Weight loss, Grade 3, # Subjects: 0
  Weight loss, Grade 3, %: 0.0%
  Xerostomia, Grade 1 or 2, # Subjects: 2
  Xerostomia, Grade 1 or 2, %: 18.2%
  Xerostomia, Grade 3, # Subjects: 0
  Xerostomia, Grade 3, %: 0.0%
  hypophosphatemia, Grade 1 or 2, # Subjects: 0
  hypophosphatemia, Grade 1 or 2, %: 0.0%
  hypophosphatemia, Grade 3, # Subjects: 0
  hypophosphatemia, Grade 3, %: 0.0%
